Data published in US4315010A, “Glaucine phosphate salts” (priority 1979, dated 1982).
Structures can show the parent of a compound that is named as a salt. Where two headings read alike, the source gives them in different places.

Experiments:
[1] = format: physicochemical; conditions: for Percentage Remaining after 3 months at, 40° C. / Percentage Remaining after 3 months at, 50° C. / Percentage Remaining after 3 months at, Ambient / assay after 12 months: syrup; for Percentage Remaining after 3 months at, 40° C. / Percentage Remaining after 3 months at, 50° C. / Percentage Remaining after 3 months at, Ambient: 131400 min; for assay after 12 months: 525600 min; for percent of original concentration retained in syrup: one month, d,l-glaucine phosphate 0.6 percent, others 0.2 percent, 43800 min
Procedure: Stability of d,l-glaucine phosphate was examined in the syrup vehicle of Example 4.
Syrups containing codeine phosphate, 0.2 percent contained 97.5, 104.5 or 100 percent, respectively, after one month at ambient temperature, 40° C. or 55° C. […] After three months, the percentage amount of antitussive agent remaining was as shown below.

mice [2] = assay: Analgesic activity, phenyl-p-quinone mouse writhing test (printed "writing test"); format: in vivo; conditions: 0.5 h, oral, 30 minutes prior to phenyl-p-quinone challenge
Procedure: Text compounds were evaluated for analgesic activity in the phenyl-p-quinone mouse writing test of Hendershot & Forsaith, J. Pharmacol. Exptl. Therap. 125(3) 237 (1959). The test compounds were administered orally 30 minutes prior to the phenyl-p-quinone challenge. In these operations, the oral ED50 's for d-glaucine. […]

[3] = Therapeutic ratio LD50/ED50; format: in vivo; conditions: mouse LD50, guinea pig ED50
monkeys = assay: Abuse potential, self-administration in codeine-habituated monkeys (Deneau et al.); format: in vivo; conditions: codeine 100 micrograms/kilogram per injection; d,l-glaucine phosphate substituted at 50, 100, 200 and 400 micrograms per kilogram injection
Excerpt: The abuse potential of d,l-glaucine phosphate was studied in two monkeys in a procedure similar to that described by Deneau, et al., Psychopharmacologia 16(1):30-48, 1969.
In this procedure, the test monkeys are restrained and a catheter inserted into the external jugular vein for injection of test substances in response to pressing a bar lever by the monkey. The test monkeys are first habituated to self-administer codeine at a rate of 100 micrograms/kilogram per injection. The self-administration rate of the two monkeys so trained and habituated was about 100 to 150 lever pushes per two hour session at the 100 microgram codeine level. […]

guinea pigs [4] = assay: Antitussive test, citric acid aerosol-induced cough, oral dosing; format: in vivo; conditions: for ED50: Cavia porcellus, po, 1 h; for 95 percent confidence limits of the ED50: antitussive
Procedure: Separate groups of guinea pigs were orally administered various doses of a test compound, or distilled water for a control group. One hour after oral dosing, the guinea pigs were exposed to a 5 percent aerosol of citric acid for a 10 minute test period. The number of cough responses produced during the last five minutes of exposure to the citric acid aerosol was recorded and the dosage effect to suppress coughing in 50 percent of the guinea pigs (ED50) was calculated. An antitussive effect was recorded for a guinea pig when its total number of coughs during the 5 minute test period were at least two standard deviation units below the mean number of coughs per guinea pig in the control group. […];

[5] = Stability of syrup under continuous light in amber and flint glass bottles; format: physicochemical; conditions: one month, ambient temperature, continuous light about 2000 Foot-candles, 43800 min
Procedure: In a procedure similar to that of Example 5, syrup formulations were prepared, placed in amber glass bottles and transparent (flint) glass bottles, and held under conditions of ambient temperature with continuous exposure to light. (About 2000 Foot-candles of combined fluorescent and incandescent light, for 24 hours/day.)

mice [6] = format: in vivo; conditions: naloxone 100 mg/kg intraperitoneal after last dose
Procedure: Physical dependency liability was evaluated in mice by the procedure of Saelens, et al., Arch. Int. Pharmacodynam, 190:213-218, 1971. In this procedure, mice are administered increasing doses of a test compound at intervals on two consecutive days. The last dosage on the second day is followed by intraperitoneal injection of the morphine antagonist, naloxone, at a dosage of 100 mg/kg, and the mice are observed for characteristic jumping behaviour indicative of opiate withdrawals or morphine antagonism.

[7] = Solubility in cough syrup vehicle; format: physicochemical; conditions: cough syrup vehicle of Example 4
Procedure: A cough syrup vehicle formulation was prepared containing the following pharmaceutically-acceptable excipients:
Water g.s. to 4 liters total

Acute lethality in mice = conditions: mouse, in vivo, oral, mortality within 72 hours
Procedure: In other operations, various dosages of d,l-glaucine phosphate (2:3) were administered to groups mice by the oral route or by intraperitoneal injection, and the dosage which is lethal to 50 percent of the mice (LD50) was calculated from the mortality observations within 72 hours after administration.

guinea pigs [8] = assay: Antitussive test, citric acid aerosol-induced cough, intraperitoneal injection; format: in vivo; conditions: Cavia porcellus, ip
[9] = Plasma concentrations of l- or d-glaucine after oral administration; format: in vivo; conditions: guinea pigs
Procedure: In other operations, l- and d-glaucine phosphate (2:3) were orally administered to separate guinea pigs and plasma concentrations of l- or d-glaucine were measured at intervals after dosing.

[10] = listed as d,1-Glaucine . HBr, hydrobromide

## COc1cc2c(cc1OC)-c1c(OC)c(OC)cc3c1C(C2)N(C)CC3 (racemic) [d,l-glaucine hydrobromide]
[1]; 40° C., listed as d,1-Glaucine . HBr, hydrobromide
  Percentage Remaining after 3 months at, 40° C.: 93.3 Percentage
[1]; [10]
  Percentage Remaining after 3 months at, 50° C.: 91.4 Percentage
  Percentage Remaining after 3 months at, Ambient: 100.8 Percentage
[1]; 55° C., hydrobromide
  assay after 12 months: 87.3%
  percent of original concentration retained in syrup: 89.5%
[1]; 40° C., hydrobromide
  percent of original concentration retained in syrup: 96%
[1]; ambient temperature, hydrobromide
  percent of original concentration retained in syrup: 99%

## COc1cc2c(cc1OC)-c1c(OC)c(OC)cc3c1C(C2)N(C)CC3 (racemic) [d,l-glaucine phosphate, d,l-Glaucine Phosphate]
Mice [2]
  ED50: 23 mg/kg
[1]; 40° C.
  Percentage Remaining after 3 months at, 40° C.: 101.1 Percentage
  percent of original concentration retained in syrup: 100.0%
[1]
  Percentage Remaining after 3 months at, 50° C.: 98.7 Percentage
  Percentage Remaining after 3 months at, Ambient: 101.6 Percentage
[1]; 55° C., listed as phosphate salt
  assay after 12 months: 101.8%
[1]; 55° C.
  percent of original concentration retained in syrup: 98.4%
[1]; ambient temperature
  percent of original concentration retained in syrup: 101.3%
[3]; intraperitoneal
  therapeutic ratio (LD50/ED50): 10
[3]; oral antitussive activity
  therapeutic ratio (LD50/ED50): 38
monkeys
  monkey response rate (self-administration): 10-20 responses/two hour session
Guinea pigs [4]; restated in the description, read-out: oral ED50, antitussive
  ED50: 17.8 mg/kg
Guinea pigs [4]
  95 percent confidence limits of the ED50: 6.0-53.1 milligrams per kilogram
[5]; amber glass
  assay of syrup in amber glass bottles: 97.7%
[5]; flint glass
  assay of syrup in transparent (flint) glass bottles: 90%
Mice [6]
  mice jumping after naloxone treatment: no jumping behaviour in any of the eight mice tested
[7]
  solubility: 10000 µg/mL
  solubility in cough syrup vehicle per 5 milliliter dosage unit: about 50 milligrams per 5 milliliter dosage unit
Acute lethality in mice
  LD50 at 72 h: ≥ 681 mg/kg
Guinea pigs [8]
  ED50: 17.3 mg/kg

## COc1ccc2c3c1O[C@H]1[C@@H](O)C=C[C@H]4[C@@H](C2)N(C)CC[C@@]341 [codeine phosphate]
[1]; 40° C.
  Percentage Remaining after 3 months at, 40° C.: 101.1 Percentage
  percent of original concentration retained in syrup: 104.5%
[1]
  Percentage Remaining after 3 months at, 50° C.: 88.4 Percentage
  Percentage Remaining after 3 months at, Ambient: 101.3 Percentage
[1]; 55° C.
  percent of original concentration retained in syrup: 100%
[1]; ambient temperature
  percent of original concentration retained in syrup: 97.5%
Guinea pigs [4]
  95 percent confidence limits of the ED50: 52.3-232.6 milligrams per kilogram
Mice [6]
  mice jumping after naloxone treatment: 2 of 6
  total jumps after naloxone treatment: 23 jumps total

## COc1ccc2c3c1O[C@H]1[C@@H](O)C=C[C@H]4[C@@H](C2)N(C)CC[C@@]341 [codeine, reference compound]
monkeys
  monkey response rate (self-administration): 100-150 responses/two hour session

## COc1cc2c(cc1OC)-c1c(OC)c(OC)cc3c1[C@H](C2)N(C)CC3 [d-glaucine phosphate, reference compound]
Guinea pigs [4]; one hour before 5 percent citric acid aerosol, 60 min
  ED50, dosage effect to suppress coughing in 50 percent of the guinea pigs: 170.1 milligrams per kilogram

## COc1cc2c(cc1OC)-c1c(OC)c(OC)cc3c1[C@@H](C2)N(C)CC3 [l-glaucine phosphate, l-glaucine phosphate (2:3)]
[9]
  time within which high plasma levels of glaucine were produced: ≤ 15 min
Guinea pigs [4]; one hour before 5 percent citric acid aerosol, read-out: ED50, dosage effect to suppress coughing in 50 percent of the guinea pigs
  ED50: 10.9 mg/kg
Guinea pigs [4]
  95 percent confidence limits of the ED50: 0.4-33.8 milligrams per kilogram
